Where two headings read alike, the source gives them in different places.
Experiments:
PARP-1 enzyme = PARP-1 enzyme (Homo sapiens (Human), UniProt P09874); experiment: PARP-1 enzyme activity test (chemical fluorescence detection kit, BPS Bioscience); format: biochemical
Protocol: PARP-1 chemical fluorescence detection kit was purchased from BPS Bioscience. The histone solution in the kit was diluted 5× with 1×PBS, and 25 μL of the diluted histone solution was added to a microwell plate and incubated overnight at 4° C. After the incubation, the plate was washed three times with PBST (0.05% Tween-20). 100 μL of the blocking solution was added to the microwell plate and incubated at 25° C. for 90 minutes. After the incubation was completed, the plate was washed three times with PBST. 2.5 μL of compounds at different concentrations diluted in test buffer and 12.5 μL of substrate mixed solution (1.25 μL 10×PARP test buffer; 1.25 μL 10×PARP test mixed solution; 2.5 μL Activated DNA, 7.5 μL double-distilled water) were added to the microwell plate. The PARP-1 enzyme was diluted to 2 ng/μL, […] was added to the microwell plate, and the reaction system was incubated at 25° C. for 60 minutes.
After the incubation was completed, the plate was washed three times with PBST. Streptavidin-HRP was diluted 50× with a blocking solution, and 25 μL of the diluent was added to the microwell plate and incubated at 25° C. for 30 minutes. After the incubation, the plate was washed three times with PBST. ELISA ECL substrate A and substrate B were uniformly mixed at a ratio of 1:1 (v/v), 50 μL of the mixture was added to the microwell plate, and the chemiluminescence value was read.
The inhibition rate was calculated according to formula 1, where RLUsample was the readout of the compound well, RLUmax was the readout of the solvent control well, and RLUmin was the readout of the control well without the PARP-1 enzyme. Curve fitting was performed by four parameters (log(inhibitor) vs. response—Variable slope) using GraphPad Prism software, and the ICso value was calculated.
Inhibition %=(1−(RLUsample−RLUmin)/(RLUmax−RLUmin))×100% (formula 1)

MDA-MB-436 cells = experiment: MDA-MB-436 cell activity test (CellTiter-Glo, 7 days); format: cell-based; conditions: for IC50: 7 days incubation; for inhibition at 10 µM: read-out: Max inh. % 10 μM
Protocol: Breast tumor cells MDA-MB-436 were purchased from ATCC, the culture medium was Leibovitz's L-15+10% FBS, and the cells were cultured in a CO2-free incubator at 37° C. On day 1, the cells in the exponential growth phase were collected, and the cell suspension was adjusted to 4000 cells/135 μL with the culture medium. 135 μL of the cell suspension was added to each well of a 96-well cell culture plate and incubated overnight. On day 2, compounds at different concentrations were added, and the plate was placed in the incubator and incubated for 7 days. After the incubation was completed, according to operation instructions for a CellTiter-Glo kit (Promega, G7573), 75 μL of CTG solution, which was already pre-melted and equilibrated to room temperature, was added to each well, and the mixture was uniformly mixed for 2 min using a microplate shaker. The plate was placed at room temperature for 10 min, and then […] were measured using an Envision2104 plate reader (PerkinElmer). The inhibition rate was calculated using formula (1), where RLUcompound was the readout of the drug treated group, RLUcontrol was the average value of the vehicle control group, and RLUblank was the average value of the cell-free well. The IC50 value was calculated using GraphPad Prism software

[1] = Pharmacokinetic test in mice; format: in vivo, Balb/c mice; conditions: for pharmacokinetic characteristics in mice: conclusion in words; for Kp at 24 h / AUC(0-t) / clearance / Vd / bioavailability: male, Balb/c, mouse, mice; for Kp at 24 h: brain/plasma, 24 h after administration, read-out: Brain/Plasma Ratio (24 h); for AUC(0-t) / clearance / Vd / bioavailability: plasma; for Vd: read-out: Vdss
Protocol: 4.1 Experimental animal: male Balb/c mice, 20-25 g, 12 mice/compound, purchased from Chengdu Ddossy Experimental Animals Co., Ltd.
4.2 Experimental design: on the day of the test, 60 Balb/c mice were randomly grouped according to their body weights. The animals were fasted with water available for 12 to 14 h one day before the administration and were fed 4 h after the administration.
(§1) Before and after the administration, 0.06 mL ofblood was taken from the orbit of the animals under isoflurane anesthesia and placed in an EDTAK2 centrifuge tube. The blood was centrifuged at 5000 rpm and 4° C. for 10 min to collect plasma. The blood collection time points for the intravenous administration group and intragastric administration group were 0, 5 min, 15 min, 30 min, 1 h, 2 h, 4 h, 6 h, 8 h, and 24 h. The brain tissues were collected at 30 min, 2 h and 24 h after administration of compounds 12, 15 and 18, respectively. The brain tissues were collected 24 hours after administration of compounds 2 and 5, rinsed with cold physiological saline to remove the residual blood on the surface, drained out and then homogenized. Before analysis and detection, all samples were stored at −80° C. The samples were analyzed quantitatively by LC-MS/MS.

[2] = Pharmacokinetic test in rats; format: in vivo, SD rats; conditions: for pharmacokinetic characteristics in rats: conclusion in words; for Kp at 24 h / AUC(0-t) / clearance / Vd / bioavailability: male, SD, rat, rats; for Kp at 24 h: brain/plasma, intravenous, 2.5 mg/kg, 24 h after administration, read-out: Brain/Plasma Ratio (24 h); for AUC(0-t) / clearance / Vd / bioavailability: plasma; for Vd: read-out: Vdss
Protocol: 3.1 Experimental animal: male SD rats, about 220 g, 6-8 weeks old, 6 rats/compound, purchased from Chengdu Ddossy Experimental Animals Co., Ltd.
3.2 Experimental design: on the day of the experiment, 30 SD rats were randomly grouped according to their body weights. The animals were fasted with water available for 12 to 14 h one day before the administration and were fed 4 h after the administration.
as §1, with “administration, 0.15 ml of blood” for “administration, 0.06 mL ofblood”, “8 h” for “8 h,”, “collected” for “collected at 30 min, 2 h and 24 h after administration of compounds 12, 15 and 18, respectively. The brain tissues were collected”, “after administration,” for “after administration of compounds 2 and 5,”

[3] = Pharmacokinetic test in monkeys; format: in vivo, cynomolgus monkeys
Protocol: 6.1 Experimental animal: male cynomolgus monkeys, 3-5 kg, 3-6 years old, 4 monkeys/compound, purchased from Suzhou Xishan Biotechnology Inc.
6.2 Test method: On the day of the experiment, 8 monkeys were randomly grouped according to their body weights. The animals were fasted with water available for 14 to 18 h one day before the administration, and were fed 4 h after the administration.
Before and after the administration, 1.0 mL of blood was taken from the limb veins and placed in an EDTAK2 centrifuge tube. The blood was centrifuged at 5000 rpm and 4° C. for 10 min to collect plasma. The blood collection time points for the intravenous administration group were 0, 5 min, 15 min, 30 min, 1 h, 2 h, 4 h, 6 h, 8 h, 10 h, 12 h, 24 h and 48 h. Before analysis and detection, all samples were stored at −80° C. The samples were analyzed quantitatively by LC-MS/MS.

[4] = grades, read-out: PARP-1 enzyme activity IC50
[5] = Homo sapiens, MDA-MB-436, 168 h
[6] = Homo sapiens, 10 μM, MDA-MB-436 cells
[7] = male, cynomolgus monkey, iv, monkeys, i.v. (1 mg/kg), plasma

Chain of PARP-1 enzyme (P09874 whole entry): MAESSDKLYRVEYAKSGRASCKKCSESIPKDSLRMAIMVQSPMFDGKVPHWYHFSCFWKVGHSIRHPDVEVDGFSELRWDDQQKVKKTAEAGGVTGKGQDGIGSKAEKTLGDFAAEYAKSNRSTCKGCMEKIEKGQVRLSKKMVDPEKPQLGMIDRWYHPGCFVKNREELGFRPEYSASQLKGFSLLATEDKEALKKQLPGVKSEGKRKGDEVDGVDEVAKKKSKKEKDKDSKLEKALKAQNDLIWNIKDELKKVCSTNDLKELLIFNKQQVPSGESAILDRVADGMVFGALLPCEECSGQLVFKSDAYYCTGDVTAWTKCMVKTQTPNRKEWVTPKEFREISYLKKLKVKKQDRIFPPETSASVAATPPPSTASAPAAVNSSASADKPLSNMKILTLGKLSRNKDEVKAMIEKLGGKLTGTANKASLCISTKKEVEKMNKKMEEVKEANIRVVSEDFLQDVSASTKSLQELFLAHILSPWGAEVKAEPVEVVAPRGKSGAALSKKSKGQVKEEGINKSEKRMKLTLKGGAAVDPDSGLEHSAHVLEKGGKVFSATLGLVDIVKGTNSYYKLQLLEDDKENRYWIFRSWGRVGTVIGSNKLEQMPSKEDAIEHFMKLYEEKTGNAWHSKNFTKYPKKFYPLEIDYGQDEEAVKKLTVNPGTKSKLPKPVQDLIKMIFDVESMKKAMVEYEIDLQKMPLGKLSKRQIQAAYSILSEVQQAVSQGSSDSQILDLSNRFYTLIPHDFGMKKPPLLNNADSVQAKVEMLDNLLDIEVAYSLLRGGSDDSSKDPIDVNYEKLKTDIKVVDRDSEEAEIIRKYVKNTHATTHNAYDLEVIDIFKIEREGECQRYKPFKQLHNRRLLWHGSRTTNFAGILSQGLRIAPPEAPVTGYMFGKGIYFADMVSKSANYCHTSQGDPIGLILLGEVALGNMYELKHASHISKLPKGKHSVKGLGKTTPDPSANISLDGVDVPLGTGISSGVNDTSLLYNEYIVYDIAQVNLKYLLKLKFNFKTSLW

| Compound | IC50 (PARP-1 enzyme; [4]) [nM] | pharmacokinetic characteristics in mice [1] | AUC(0-t) ([1]; iv, i.v. 2.5 mg/kg) [ng·h/mL] | clearance ([1]; iv, i.v. 2.5 mg/kg) [mL/min/kg] | Vd ([1]; iv, i.v. 2.5 mg/kg) [L/kg] | bioavailability ([1]; po, i.g. 10 mg/kg) [%] | AUC(0-t) ([1]; po, i.g. 10 mg/kg) [ng·h/mL] | IC50 (MDA-MB-436 cells; [5]) [nM] | inhibition at 10 µM (MDA-MB-436 cells; [6]) [%] | pharmacokinetic characteristics in rats [2] | AUC(0-t) ([2]; iv, i.v. 2.5 mg/kg) [ng·h/mL] | clearance ([2]; iv, i.v. 2.5 mg/kg) [mL/min/kg] | Vd ([2]; iv, i.v. 2.5 mg/kg) [L/kg] | bioavailability ([2]; po, i.g. 10 mg/kg) [%] | AUC(0-t) ([2]; po, i.g. 10 mg/kg) [ng·h/mL] | also measured |
| --- | --- | --- | --- | --- | --- | --- | --- | --- | --- | --- | --- | --- | --- | --- | --- | --- |
| 1-(difluoromethyl)-N-(5-(4-((2-(difluoroethyl(-5-fluoro-3-oxo-3,4-dihydroquinoxalin-6-yl)methyl)piperazin-1-yl)-6-fluoropyridin-2-yl)-1H-pyrazole-4-carboxamide [Compound 17] | < 5 |  |  |  |  |  |  |  |  |  |  |  |  |  |  | Max inh. % 10 μM (MDA-MB-436 cells; 10 μM, MDA-MB-436 cells): 72.33%; IC50 (MDA-MB-436 cells): 19.4 nM |
| Cc1nc2ccc(CN3CCN(c4ccc(C(=O)Nc5cnn(C)c5)nc4F)CC3)c(F)c2[nH]c1=O [Compound 2, 6-fluoro-5-(4-((5-fluoro-2-methyl-3-oxo-3,4-dihydroquinoxalin-6-yl)methyl)piperazin-1-yl)-N-(1-methyl-1H-pyrazol-4-yl)picolinamide] | < 5 | good pharmacokinetic characteristics | 1870 ± 154 | 21.6 ± 1.3 | 2.09 ± 0.52 | 97.4 | 7270 ± 793 | 3.5 | 86 |  |  |  |  |  |  | Kp at 24 h [1]: 5.23; IC50 (PARP-1 enzyme; read-out: IC50 value on PARP-1): 0.79 nM |
| Cc1nc2ccc(CN3CCN(c4ccc(C(=O)N[C@@H]5C[C@@H]5F)nc4F)CC3)c(F)c2[nH]c1=O [Compound 4, 6-fluoro-5-(4-((5-fluoro-2-methyl-3-oxo-3,4-dihydroquinoxalin-6-yl)methyl)piperazin-1-yl)-N-((1R,2S)-2-fluorocyclopropyl)picolinamide] | < 5 |  |  |  |  |  |  | 32.8 | 80.1 | good pharmacokinetic characteristics | 7390 ± 663 | 5.36 ± 0.068 | 1.13 ± 0.071 | ≥ 98 | 33400 ± 2670 | Kp at 24 h [2]: 0.315 |
| Cc1nc2ccc(CN3CCN(c4ccc(C(=O)N[C@H]5C[C@H]5F)nc4F)CC3)c(F)c2[nH]c1=O [Compound 5, 6-fluoro-5-(4-((5-fluoro-2-methyl-3-oxo-3,4-dihydroquinoxalin-6-yl)methyl)piperazin-1-yl)-N-((1S,2R)-2-fluorocyclopropyl)picolinamide] | < 5 | good pharmacokinetic characteristics | 2750 ± 212 | 15.2 ± 1.1 | 2.85 ± 0.23 | ≥ 98 | 12700 ± 817 | 28 | 79.8 |  |  |  |  |  |  | Kp at 24 h [1]: 0.911 |
| Cc1nc2ccc(CN3CC=C(c4ccc(C(=O)Nc5cnn(C)c5)nc4F)CC3)c(F)c2[nH]c1=O [Compound 9, 2-fluoro-1′-((5-fluoro-2-methyl-3-oxo-3,4-dihydroquinoxalin-6-yl)methyl)-N-(1-methyl-1H-pyrazol-4-yl)-1′,2′,3′,6′-tetrahydro-[3,4′-bipyridine]-6-carboxamide] |  |  |  |  |  |  |  | 1.5 | 84.4 |  |  |  |  |  |  |  |
| Cn1cc(C(=O)Nc2ccc(N3CCN(Cc4ccc5nc(C(F)F)c(=O)[nH]c5c4F)CC3)c(F)n2)cn1 [Compound 14, N-(5-(4-((2-(difluoromethyl)-5-fluoro-3-oxo-3,4-dihydroquinoxalin-6-yl)methyl)piperazin-1-yl)-6-fluoropyridin-2-yl)-1-methyl-1H-pyrazole-4-carboxamide] | < 5 |  |  |  |  |  |  | 24.3 | 73.2 | good pharmacokinetic characteristics | 48700 ± 4800 | 0.859 ± 0.09 | 0.148 ± 0.01 | 70.9 ± 3.4 | 138000 ± 6650 | pharmacokinetic characteristics in monkeys ([3]; conclusion in words): good pharmacokinetic characteristics; AUC(0-t) [3, 7]: 47100 ± 6260 ng·h/mL; clearance [3, 7]: 0.348 ± 0.057 mL/min/kg; Vd ([3]; male, cynomolgus monkey, iv, monkeys, i.v. (1 mg/kg), plasma, read-out: Vdss): 0.151 ± 0.022 L/kg; bioavailability ([3]; male, cynomolgus monkey, plasma, po, monkeys, i.g. (3 mg/kg)): 56.8 ± 4.9%; AUC(0-t) ([3]; male, cynomolgus monkey, po, monkeys, i.g. (3 mg/kg), plasma): 80100 ± 6960 ng·h/mL |
| Cn1cc(NC(=O)c2ccc(N3CCN(Cc4ccc5nc(C(F)F)c(=O)[nH]c5c4F)CC3)c(F)n2)cn1 [Compound 15] |  | good pharmacokinetic characteristics | 16300 ± 1740 | 2.57 ± 0.29 | 0.342 ± 0.04 | ≥ 98 | 67200 | 6.8 | 74.2 | good pharmacokinetic characteristics | 25800 ± 2870 | 1.63 ± 0.18 | 0.192 ± 0.022 | 87.2 ± 14 | 89800 ± 14000 | Kp at 24 h [2]: 0.916 |
| Cn1cc(C(=O)Nc2ccc(N3CCN(Cc4ccc5nc(C(F)F)c(=O)[nH]c5c4F)CC3)c(F)n2)c(F)n1 [Compound 18, N-(5-(4-((2-(difluoromethyl)-5-fluoro-3-oxo-3,4-dihydroquinoxalin-6-yl)methyl)piperazin-1-yl)-6-fluoropyridin-2-yl)-3-fluoro-1-methyl-1H-pyrazole-4-carboxamide] | < 5 | good pharmacokinetic characteristics | 8150 ± 811 | 5.14 ± 0.53 | 0.582 ± 0.029 | ≥ 98 | 32300 |  |  | good pharmacokinetic characteristics | 22000 ± 838 | 1.9 ± 0.071 | 0.294 ± 0.011 | ≥ 98 | 87600 ± 11700 |  |
